Test system: PER1, BMAL1, CRY1, CLOCK, MT1 and MT2
Assay: Expression of clock genes and MT1/MT2 in cholangiocytes from treated rats (real-time PCR, FACS)
Assay type: in vivo, rat
Experimental: Male 344 Fischer rats (150-175 g) were purchased from Charles River (Wilmington, Mass.) and kept in a temperature-controlled environment (22° C.) with 12:12 hr light/dark cycles. Animals were fed ad libitum and had free access to food and drinking water. […] Before each surgical procedure, animals were anesthetized with sodium pentobarbital (50 mg/kg BW, IP). All animal experiments were performed in accordance with a protocol approved by the Scott and White and Texas A&M Health Science Center Institutional Animal Care and Use Committee and conform to the Guide for the Care and Use of Laboratory Animals published by the US National Institutes of Health (NIH Publication No. 85-23, revised 1996). In all animals, wet liver weight, body weight, wet liver weight to body weight ratio, and an index of liver cell growth including cholangiocytes were measured ([…] et al., 1988). […] FACS analysis was performed as described (Onori et al., 2010) using a C6 flow cytometer and analyzed by CFlow Software (Accuri Cytometers Inc. Ann Arbor, Mich.). […] The relative quantity of the selected protein (mean selected protein fluorescence) was expressed as mean FL1-A (samples)/mean FL-1A (secondary antibodies only). […] Data were expressed as relative mRNA levels ±SEM of the selected gene to glyceraldehyde-3-phosphate dehydrogenase (GAPDH) ratio.

Which results are given for `COc1ccc2[nH]cc(CCNC(C)=O)c2c1` [melatonin]?
Expression of MT1 and MT2 in cholangiocytes (BDL rats treated in vivo vs. regular tap water): decreased; Expression of PER1, BMAL1, CRY1 and CLOCK in cholangiocytes (normal and BDL rats treated in vivo vs. control cholangiocytes): decreased

— patent publication US9468670B2, “Melatonin-based treatment and diagnosis of bile duct disease” (Texas A&M University System, priority 2011, dated 2016)
